Values joined by “and” are separate entries in the source; they are usually repeats but may differ in a detail not shown here. Equal values may be shown once.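 Cells were grown in 96-well plates and exposed to each compound for 48 hours at five concentrations; endpoints were interpolated linearly between bracketing concentrations, or set to the highest concentration if not reached. Here, GI50 denotes the concentration required for 50% inhibition of growth. TGI: concentration producing complete growth inhibition.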
Assays:
Assay in all cases: NCI tumour cell line growth inhibition, 48 h
786-0 renal = system: 786-0 renal
A498 renal = system: A498 renal
A549 NSCLC = system: A549 NSCLC
ACHN renal = system: ACHN renal
CAKI-1 renal = system: CAKI-1 renal
COLO 205 colon = system: COLO 205 colon
DLD-1 colon = system: DLD-1 colon
DMS 114 small cell lung = system: DMS 114 small cell lung
DMS 273 small cell lung = system: DMS 273 small cell lung
EKVX NSCLC = system: EKVX NSCLC
HCC-2998 colon = system: HCC-2998 colon
HCT-116 colon = system: HCT-116 colon
HCT-15 colon = system: HCT-15 colon
HL-60(TB) leukemia = system: HL-60(TB) leukemia
HOP-18 NSCLC = system: HOP-18 NSCLC
HOP-62 NSCLC = system: HOP-62 NSCLC
HOP-92 NSCLC = system: HOP-92 NSCLC
HT29 colon = system: HT29 colon
IGROV1 ovarian = system: IGROV1 ovarian
K-562 leukemia = system: K-562 leukemia
KM12 colon = system: KM12 colon
LOX IMVI melanoma = system: LOX IMVI melanoma
LXFL 529 NSCLC = system: LXFL 529 NSCLC
M14 melanoma = system: M14 melanoma
M19-MEL melanoma = system: M19-MEL melanoma
MALME-3M melanoma = system: MALME-3M melanoma
MCF7 breast = system: MCF7 breast
MOLT-4 leukemia = system: MOLT-4 leukemia
NCI-H226 lung = system: NCI-H226 lung
NCI-H23 lung = system: NCI-H23 lung
NCI-H460 lung = system: NCI-H460 lung
NCI-H522 lung = system: NCI-H522 lung
NCI/ADR-RES ovarian = system: NCI/ADR-RES ovarian
OVCAR-3 ovarian = system: OVCAR-3 ovarian
OVCAR-4 ovarian = system: OVCAR-4 ovarian
OVCAR-5 ovarian = system: OVCAR-5 ovarian
OVCAR-8 ovarian = system: OVCAR-8 ovarian
P388/ADR leukemia = system: P388/ADR leukemia
RPMI-8226 leukemia = system: RPMI-8226 leukemia
RXF 393 renal = system: RXF 393 renal
RXF-631 renal = system: RXF-631 renal
SF-295 CNS = system: SF-295 CNS
SF-539 CNS = system: SF-539 CNS
SK-MEL-2 melanoma = system: SK-MEL-2 melanoma
SK-MEL-28 melanoma = system: SK-MEL-28 melanoma
SK-MEL-5 melanoma = system: SK-MEL-5 melanoma
SK-OV-3 ovarian = system: SK-OV-3 ovarian
SN12C renal = system: SN12C renal
SN12K1 renal = system: SN12K1 renal
SNB-19 CNS = system: SNB-19 CNS
SNB-75 CNS = system: SNB-75 CNS
SNB-78 CNS = system: SNB-78 CNS
SR leukemia = system: SR leukemia
SW-620 colon = system: SW-620 colon
TK-10 renal = system: TK-10 renal
U251 CNS = system: U251 CNS
UACC-257 melanoma = system: UACC-257 melanoma
UACC-62 melanoma = system: UACC-62 melanoma
UO-31 renal = system: UO-31 renal

NC(=O)C#CC(N)=O
TGI (786-0 renal): > 58 µM
GI50 (A498 renal): 71 µM
TGI (A498 renal): 197 µM and 154 µM and > 100 µM
GI50 (A549 NSCLC): 49.4 µM
TGI (A549 NSCLC): 173 µM and 189 µM and > 100 µM
TGI (ACHN renal): > 100 µM
GI50 (CAKI-1 renal): 2.81 µM and 12.5 µM and 18.2 µM
TGI (CAKI-1 renal): 10.3 µM and 24.2 µM and 33.8 µM
GI50 (COLO 205 colon): 15.4 µM and 15 µM and 73.6 µM
TGI (COLO 205 colon): 30.8 µM and 29.8 µM and > 100 µM
GI50 (DLD-1 colon): 26.5 µM and 22.2 µM and 62.5 µM
TGI (DLD-1 colon): 87.5 µM and 68.3 µM and > 100 µM
GI50 (DMS 114 small cell lung): 24.4 µM and 38.3 µM and > 100 µM
TGI (DMS 114 small cell lung): 71.5 µM and 125 µM and > 100 µM
GI50 (DMS 273 small cell lung): 23.5 µM and 30.5 µM and > 100 µM
TGI (DMS 273 small cell lung): 73.1 µM and 106 µM and > 100 µM
GI50 (EKVX NSCLC): 16.1 µM and 18.1 µM and > 100 µM
TGI (EKVX NSCLC): 29.7 µM and 35 µM and > 100 µM
TGI (HCC-2998 colon): 179 µM and > 100 µM
GI50 (HCT-116 colon): 15.1 µM and 37.5 µM
TGI (HCT-116 colon): 29.5 µM and > 100 µM
GI50 (HCT-15 colon): 20 µM and 26.2 µM and > 100 µM
TGI (HCT-15 colon): 76.2 µM and 100 µM and > 100 µM
GI50 (HL-60(TB) leukemia): 1.95 µM
TGI (HL-60(TB) leukemia): 4.29 µM and 4.03 µM and 6.3 µM
TGI (HOP-18 NSCLC): 43.5 µM and 33.2 µM
GI50 (HOP-62 NSCLC): 57.4 µM
TGI (HOP-62 NSCLC): 211 µM and 170 µM and > 100 µM
TGI (HOP-92 NSCLC): 5.51 µM and 35.7 µM
GI50 (HT29 colon): 31.2 µM and 17 µM
TGI (HT29 colon): 131 µM and 35.4 µM and > 100 µM
TGI (IGROV1 ovarian): 213 µM and 189 µM and > 100 µM
TGI (K-562 leukemia): 15.1 µM and 96.6 µM and 24.3 µM
GI50 (KM12 colon): 38.9 µM and 54.1 µM and > 100 µM
TGI (KM12 colon): 164 µM and 161 µM and > 100 µM
TGI (LOX IMVI melanoma): 80.5 µM and 30.4 µM
TGI (LXFL 529 NSCLC): > 100 µM
TGI (M14 melanoma): 37.5 µM
GI50 (M19-MEL melanoma): 11.8 µM and 10.1 µM and 28.6 µM
TGI (M19-MEL melanoma): 24.8 µM and 22.4 µM and > 65.8 µM
GI50 (MALME-3M melanoma): 5.74 µM
TGI (MALME-3M melanoma): 19.7 µM and 18.1 µM
TGI (MCF7 breast): 48.5 µM and 56.8 µM
GI50 (MOLT-4 leukemia): 3.31 µM and 14.2 µM
TGI (MOLT-4 leukemia): 18.6 µM and 37.5 µM
GI50 (NCI-H226 lung): 73.6 µM
TGI (NCI-H226 lung): 169 µM and > 100 µM
GI50 (NCI-H23 lung): 46.4 µM
TGI (NCI-H23 lung): 238 µM and 207 µM and > 100 µM
GI50 (NCI-H460 lung): 38.3 µM and 32.8 µM and > 100 µM
TGI (NCI-H460 lung): 146 µM and 126 µM and > 100 µM
TGI (NCI-H522 lung): 46.5 µM and 27.7 µM and 55.2 µM
GI50 (NCI/ADR-RES ovarian): 8.22 µM
TGI (NCI/ADR-RES ovarian): 25.9 µM and 18 µM
GI50 (OVCAR-3 ovarian): 26.5 µM and 22.8 µM and > 100 µM
TGI (OVCAR-3 ovarian): 90.2 µM and 66.5 µM and > 100 µM
GI50 (OVCAR-4 ovarian): 30.7 µM and 21.6 µM and > 100 µM
TGI (OVCAR-4 ovarian): 87.5 µM and 55 µM and > 100 µM
GI50 (OVCAR-5 ovarian): 20.9 µM and > 54 µM
TGI (OVCAR-5 ovarian): 38.4 µM and 47.9 µM and > 90.8 µM
GI50 (OVCAR-8 ovarian): 8.34 µM and 19.2 µM
TGI (OVCAR-8 ovarian): 23.4 µM and 47.5 µM
TGI (P388/ADR leukemia): 875 µM
TGI (RPMI-8226 leukemia): 62.1 µM
GI50 (RXF 393 renal): 3.62 µM and 10.2 µM and 14.6 µM
TGI (RXF 393 renal): 14.6 µM and 22.7 µM and 29.5 µM
TGI (RXF-631 renal): > 100 µM
TGI (SF-295 CNS): 26.2 µM and > 31.6 µM
TGI (SF-539 CNS): 46.3 µM and 68.9 µM
TGI (SK-MEL-2 melanoma): 30.2 µM and 26.4 µM and 42.8 µM
GI50 (SK-MEL-28 melanoma): 8.21 µM and 5.85 µM
TGI (SK-MEL-28 melanoma): 20 µM and 15.6 µM and 27 µM
GI50 (SK-MEL-5 melanoma): 15 µM and 54.6 µM
TGI (SK-MEL-5 melanoma): 28.2 µM and > 100 µM
TGI (SK-OV-3 ovarian): 231 µM and 214 µM and > 100 µM
GI50 (SN12C renal): 14.3 µM and 36.4 µM
TGI (SN12C renal): 26.6 µM and > 100 µM
GI50 (SN12K1 renal): 14.8 µM
TGI (SN12K1 renal): 27.4 µM and 26.7 µM
TGI (SNB-19 CNS): 241 µM and > 100 µM
TGI (SNB-75 CNS): 79.8 µM and > 100 µM
GI50 (SNB-78 CNS): 22.5 µM and 121 µM
TGI (SNB-78 CNS): 72.3 µM and 202 µM and > 100 µM
TGI (SR leukemia): 36.3 µM
GI50 (SW-620 colon): 5.74 µM and 3.1 µM and 15.2 µM
TGI (SW-620 colon): 18.2 µM and 12.1 µM and 31.1 µM
TGI (TK-10 renal): 36.2 µM
GI50 (U251 CNS): 43 µM and 39.1 µM and > 100 µM
TGI (U251 CNS): 152 µM and 132 µM and > 100 µM
GI50 (UACC-257 melanoma): 4.46 µM and 13.6 µM
TGI (UACC-257 melanoma): 14.2 µM and 19.5 µM
TGI (UACC-62 melanoma): 28.4 µM and 29.5 µM and 43 µM
TGI (UO-31 renal): 63.4 µM and > 81.1 µM

— PubChem BioAssay (NCI)
